Measured values published in ChEMBL document CHEMBL4229455, “Synthesis and anticancer activity of novel bisindolylhydroxymaleimide derivatives with potent GSK-3 kinase inhibition” (Bioorg Med Chem, 2018).

Tests used:
Assay type in all cases: functional
[1] = test system: SK-MEL-5; test: Cytotoxicity against human SK-MEL-5 cells assessed as cell growth at 0.1 uM after 48 hrs by SRB assay relative to control; details: SK-MEL-5, 48 h, read-out: Activity
[2] = test system: HCC 2998; test: Cytotoxicity against human HCC2998 cells assessed as cell growth at 1 uM after 48 hrs by SRB assay relative to control; details: HCC 2998, 48 h, read-out: Activity
[3] = test system: T47D; test: Cytotoxicity against human T47D cells assessed as cell growth at 0.01 uM after 48 hrs by SRB assay relative to control; details: read-out: Activity
[4] = test system: CCRF-CEM; test: Cytotoxicity against human CCRF-CEM cells assessed as cell growth at 0.1 uM after 48 hrs by SRB assay relative to control; details: read-out: Activity
[5] = test system: K562; test: Cytotoxicity against human K562 cells assessed as cell growth at 0.01 uM after 48 hrs by SRB assay relative to control; details: K562, 48 h, read-out: Activity
[6] = test system: MCF7; test: Cytotoxicity against human MCF7 cells assessed as cell growth at 0.1 uM after 48 hrs by SRB assay relative to control; details: MCF7, 48 h, read-out: Activity
[7] = test system: SF-295; test: Cytotoxicity against human SF295 cells assessed as cell growth at 0.1 uM after 48 hrs by SRB assay relative to control; details: SF-295, 48 h, read-out: Activity
[8] = test system: SK-MEL-28; test: Cytotoxicity against human SK-MEL-28 cells assessed as cell growth at 100 uM after 48 hrs by SRB assay relative to control; details: SK-MEL-28, 48 h, read-out: Activity
[9] = test system: A498; test: Cytotoxicity against human A498 cells assessed as cell growth at 0.01 uM after 48 hrs by SRB assay relative to control; details: A498, 48 h, read-out: Activity
[10] = test system: SF-268; test: Cytotoxicity against human SF268 cells assessed as cell growth at 1 uM after 48 hrs by SRB assay relative to control; details: SF-268, 48 h, read-out: Activity
[11] = test system: RXF 393; test: Cytotoxicity against human RXF393 cells assessed as cell growth at 0.01 uM after 48 hrs by SRB assay relative to control; details: RXF 393, 48 h, read-out: Activity
[12] = test system: SK-MEL-28; test: Cytotoxicity against human SK-MEL-28 cells assessed as cell growth at 0.1 uM after 48 hrs by SRB assay relative to control; details: SK-MEL-28, 48 h, read-out: Activity
[13] = test system: UO-31; test: Cytotoxicity against human UO31 cells assessed as cell growth at 100 uM after 48 hrs by SRB assay relative to control; details: UO-31, 48 h, read-out: Activity
[14] = test system: HCT-116; test: Cytotoxicity against human HCT116 cells assessed as cell growth at 0.1 uM after 48 hrs by SRB assay relative to control; details: HCT-116, 48 h, read-out: Activity
[15] = test system: KM12; test: Cytotoxicity against human KM12 cells after 48 hrs by SRB assay; details: KM12, 48 h
[16] = test system: SF-295; test: Cytotoxicity against human SF295 cells assessed as cell growth at 0.01 uM after 48 hrs by SRB assay relative to control; details: SF-295, 48 h, read-out: Activity
[17] = test system: HOP-92; test: Cytotoxicity against human HOP92 cells assessed as cell growth at 0.1 uM after 48 hrs by SRB assay relative to control; details: HOP-92, 48 h, read-out: Activity
[18] = test system: T47D; test: Cytotoxicity against human T47D cells after 48 hrs by SRB assay
[19] = test system: SF-268; test: Cytotoxicity against human SF268 cells assessed as cell growth at 100 uM after 48 hrs by SRB assay relative to control; details: SF-268, 48 h, read-out: Activity
[20] = test system: UACC-257; test: Cytotoxicity against human UACC257 cells assessed as cell growth at 0.1 uM after 48 hrs by SRB assay relative to control; details: UACC-257, 48 h, read-out: Activity
[21] = test system: M14; test: Cytotoxicity against human M14 cells assessed as cell growth at 0.01 uM after 48 hrs by SRB assay relative to control; details: M14, 48 h, read-out: Activity
[22] = test system: MDA-MB-231; test: Cytotoxicity against human MDA-MB-231 cells assessed as cell growth at 1 uM after 48 hrs by SRB assay relative to control; details: MDA-MB-231, 48 h, read-out: Activity
[23] = test system: HL-60(TB); test: Cytotoxicity against human HL-60(TB) cells assessed as cell growth at 100 uM after 48 hrs by SRB assay relative to control; details: HL-60, 48 h, read-out: Activity
[24] = test system: TK-10; test: Cytotoxicity against human TK10 cells after 48 hrs by SRB assay; details: TK-10, 48 h; for CC50: read-out: LC50 (the source's name)
[25] = test system: ACHN; test: Cytotoxicity against human ACHN cells assessed as cell growth at 1 uM after 48 hrs by SRB assay relative to control; details: read-out: Activity
[26] = test system: PC-3; test: Cytotoxicity against human PC3 cells assessed as cell growth at 0.1 uM after 48 hrs by SRB assay relative to control; details: PC-3, 48 h, read-out: Activity
[27] = test system: MDA-MB-468; test: Cytotoxicity against human MDA-MB-468 cells assessed as cell growth at 0.1 uM after 48 hrs by SRB assay relative to control; details: MDA-MB-468, 48 h, read-out: Activity
[28] = test system: SK-OV-3; test: Cytotoxicity against human SKOV3 cells assessed as cell growth at 1 uM after 48 hrs by SRB assay relative to control; details: SK-OV-3, 48 h, read-out: Activity
[29] = test system: KM12; test: Cytotoxicity against human KM12 cells assessed as cell growth at 0.1 uM after 48 hrs by SRB assay relative to control; details: KM12, 48 h, read-out: Activity
[30] = test system: PC-3; test: Cytotoxicity against human PC3 cells after 48 hrs by SRB assay; details: PC-3, 48 h
[31] = test system: SK-MEL-28; test: Cytotoxicity against human SK-MEL-28 cells after 48 hrs by SRB assay; details: SK-MEL-28, 48 h
[32] = test system: NCI-H460; test: Cytotoxicity against human NCI-H460 cells assessed as cell growth at 1 uM after 48 hrs by SRB assay relative to control; details: NCI-H460, 48 h, read-out: Activity
[33] = test system: NCI-H522; test: Cytotoxicity against human NCI-H522 cells assessed as cell growth at 100 uM after 48 hrs by SRB assay relative to control; details: NCI-H522, 48 h, read-out: Activity
[34] = test system: SNB-75; test: Cytotoxicity against human SNB75 cells assessed as cell growth at 0.1 uM after 48 hrs by SRB assay relative to control; details: SNB-75, 48 h, read-out: Activity
[35] = test system: SNB-75; test: Cytotoxicity against human SNB75 cells assessed as cell growth at 0.01 uM after 48 hrs by SRB assay relative to control; details: SNB-75, 48 h, read-out: Activity
[36] = test system: HOP-62; test: Cytotoxicity against human HOP62 cells assessed as cell growth at 0.01 uM after 48 hrs by SRB assay relative to control; details: HOP-62, 48 h, read-out: Activity

N#CCCCCCn1cc(C2=C(c3cn(CCCCCC#N)c4ccccc34)C(=O)N(O)C2=O)c2ccccc21
growth at 0.1 µM [1]: 99%
growth at 1 µM [2]: 108%
growth at 0.01 µM [3]: 99%
growth at 0.1 µM [4]: 85%
growth at 0.01 µM [5]: 85%
growth at 0.1 µM [6]: 85%
growth at 0.1 µM [7]: 91%
growth at 100 µM [8]: 4%
growth at 0.01 µM [9]: 84%
growth at 1 µM [10]: 99%
growth at 0.01 µM [11]: 96%
growth at 0.1 µM [12]: 102%
growth at 100 µM [13]: -1%
growth at 0.1 µM [14]: 97%
GI50 [15]: 4.78 µM
LC50 [15]: > 100 µM
TGI [15]: 33.1 µM
growth at 0.01 µM [16]: 98%
growth at 0.1 µM [17]: 97%
GI50 [18]: 4.15 µM
LC50 [18]: > 100 µM
TGI [18]: 60.5 µM
growth at 100 µM [19]: 8%
growth at 0.1 µM [20]: 100%
growth at 0.01 µM [21]: 97%
growth at 1 µM [22]: 82%
growth at 100 µM [23]: -27%
GI50 [24]: 22.2 µM
TGI [24]: > 100 µM
CC50 [24]: > 100 µM
growth at 1 µM [25]: 88%
growth at 0.1 µM [26]: 88%
growth at 0.1 µM [27]: 105%
growth at 1 µM [28]: 86%
growth at 0.1 µM [29]: 97%
GI50 [30]: 3.92 µM
LC50 [30]: > 100 µM
TGI [30]: 74 µM
GI50 [31]: 6.07 µM
LC50 [31]: > 100 µM
TGI [31]: > 100 µM
growth at 1 µM [32]: 101%
growth at 100 µM [33]: -30%
growth at 0.1 µM [34]: 72%
growth at 0.01 µM [35]: 79%
growth at 0.01 µM [36]: 94%

Cn1cc(C2=C(c3cn(C)c4ncccc34)C(=O)NC2=O)c2ccccc21
growth at 0.1 µM [1]: 101%
growth at 1 µM [2]: 85%
growth at 0.01 µM [3]: 89%
growth at 0.1 µM [4]: 81%
growth at 0.01 µM [5]: 108%
growth at 0.1 µM [6]: 87%
growth at 0.1 µM [7]: 93%
growth at 100 µM [8]: -24%
growth at 0.01 µM [9]: 76%
growth at 1 µM [10]: 101%
growth at 0.01 µM [11]: 98%
growth at 0.1 µM [12]: 95%
growth at 100 µM [13]: -17%
growth at 0.1 µM [14]: 107%
GI50 [15]: 2.89 µM
TGI [15]: 13.4 µM
growth at 0.01 µM [16]: 98%
growth at 0.1 µM [17]: 83%
GI50 [18]: 2.37 µM
TGI [18]: 30.3 µM
growth at 100 µM [19]: -12%
growth at 0.1 µM [20]: 103%
growth at 0.01 µM [21]: 105%
growth at 1 µM [22]: 79%
growth at 100 µM [23]: -28%
GI50 [24]: 4.82 µM
TGI [24]: 43.9 µM
CC50 [24]: > 100 µM
growth at 1 µM [25]: 87%
growth at 0.1 µM [26]: 94%
growth at 0.1 µM [27]: 96%
growth at 1 µM [28]: 77%
growth at 0.1 µM [29]: 102%
GI50 [30]: 3.72 µM
TGI [30]: 52.9 µM
GI50 [31]: 3.05 µM
TGI [31]: 17.7 µM
growth at 1 µM [32]: 89%
growth at 100 µM [33]: -30%
growth at 0.1 µM [34]: 65%
growth at 0.01 µM [35]: 83%
growth at 0.01 µM [36]: 110%
